Measurements taken from paper PMC11007962, “First-in-human study of GFH018, a small molecule inhibitor of transforming growth factor-β receptor I inhibitor, in patients with advanced solid tumors” (BMC Cancer, 2024).

Tested on: patients with advanced solid tumors
[1] = 85 mg BID 14d-on/14d-off (N = 12)

With Cc1cccc(-c2nn3c(c2-c2ccc4ncnn4c2/C=C/C(N)=O)CCC3)n1 [GFH018] the “TRAE: LDH increased” value (85 mg BID 7d-on/7d-off (N = 6)) was 0 n (%), the “TRAE: Lymphocyte count decreased” value (85 mg BID 7d-on/7d-off (N = 6)) was 2 (33.3%) n (%) and the “TRAE: Protein urine present” value (85 mg BID 7d-on/7d-off (N = 6)) was 1 (16.7%) n (%). For the same compound, the “TRAE: Proteinuria” value (85 mg BID 7d-on/7d-off (N = 6)) was 0 n (%), the “Treatment-emergent Proteinuria (grouped PTs), G1” value (85 mg BID 7d-on/7d-off (N = 6)) was 2 (33.3) n (%) and the “Treatment-emergent Proteinuria (grouped PTs), G2” value (85 mg BID 7d-on/7d-off (N = 6)) was 0 n (%). For the same compound, the “Treatment-emergent Proteinuria (grouped PTs), G3” value (85 mg BID 7d-on/7d-off (N = 6)) was 0 n (%), the “Treatment-emergent Proteinuria (grouped PTs: proteinuria and urine protein present), any grade” value (85 mg BID 7d-on/7d-off (N = 6)) was 2 (33.3) n (%) and the “At least one TEAE” value [1] was 12 (100%) n (%). For the same compound, the “At least one TEAE (Table S3)” value [1] was 12 (100%) n (%), the “At least one TRAE” value [1] was 11 (91.7%) n (%) and the “TEAE: ALP increased” value [1] was 2 (16.7%) n (%). The “TEAE: ALT increased” value [1] was 3 (25.0%) n (%), the “TEAE: ALT increased, any grade (Table S3)” value [1] was 3 (25.0%) n (%) and the “TEAE: ALT increased, maximal CTCAE grade G1” value [1] was 3 (25.0%) n (%). The “TEAE: ALT increased, maximal CTCAE grade G2” value [1] was 0 n (%), the “TEAE: ALT increased, maximal CTCAE grade G3” value [1] was 0 n (%) and the “TEAE: ALT increased, maximal CTCAE grade G4” value [1] was 0 n (%). For the same compound, the “TEAE: ALT increased, maximal CTCAE grade G5” value [1] was 0 n (%), the “TEAE: AST increased” value [1] was 4 (33.3%) n (%) and the “TEAE: AST increased, any grade (Table S3)” value [1] was 4 (33.3%) n (%). For the same compound, the “TEAE: AST increased, maximal CTCAE grade G1” value [1] was 3 (25.0%) n (%), the “TEAE: AST increased, maximal CTCAE grade G2” value [1] was 1 (8.3%) n (%) and the “TEAE: AST increased, maximal CTCAE grade G3” value [1] was 0 n (%). For the same compound, the “TEAE: AST increased, maximal CTCAE grade G4” value [1] was 0 n (%), the “TEAE: AST increased, maximal CTCAE grade G5” value [1] was 0 n (%) and the “TEAE: Abdominal distention” value [1] was 2 (16.7%) n (%). For the same compound, the “TEAE: Abdominal pain” value [1] was 4 (33.3%) n (%), the “TEAE: Anemia” value [1] was 3 (25.0%) n (%) and the “TEAE: Asthenia” value [1] was 2 (16.7%) n (%). The “TEAE: Bilirubin conjugated increased” value [1] was 3 (25.0%) n (%), the “TEAE: Blood albumin decreased” value [1] was 1 (8.3%) n (%) and the “TEAE: Blood bilirubin increased” value [1] was 0 n (%). The “TEAE: C-reactive protein increased” value [1] was 3 (25.0%) n (%), the “TEAE: C-reactive protein increased, any grade (Table S3)” value [1] was 3 (25.0%) n (%) and the “TEAE: C-reactive protein increased, maximal CTCAE grade G1” value [1] was 3 (25.0%) n (%). For the same compound, the “TEAE: C-reactive protein increased, maximal CTCAE grade G2” value [1] was 0 n (%), the “TEAE: C-reactive protein increased, maximal CTCAE grade G3” value [1] was 0 n (%) and the “TEAE: C-reactive protein increased, maximal CTCAE grade G4” value [1] was 0 n (%). For the same compound, the “TEAE: C-reactive protein increased, maximal CTCAE grade G5” value [1] was 0 n (%), the “TEAE: Constipation” value [1] was 2 (16.7%) n (%) and the “TEAE: Decreased appetite” value [1] was 0 n (%). The “TEAE: Decreased appetite, any grade (Table S3)” value [1] was 0 n (%), the “TEAE: Decreased appetite, maximal CTCAE grade G1” value [1] was 0 n (%) and the “TEAE: Decreased appetite, maximal CTCAE grade G2” value [1] was 0 n (%). For the same compound, the “TEAE: Decreased appetite, maximal CTCAE grade G3” value [1] was 0 n (%), the “TEAE: Decreased appetite, maximal CTCAE grade G4” value [1] was 0 n (%) and the “TEAE: Decreased appetite, maximal CTCAE grade G5” value [1] was 0 n (%). The “TEAE: GGT increased” value [1] was 4 (33.3%) n (%), the “TEAE: GGT increased, any grade (Table S3)” value [1] was 4 (33.3%) n (%) and the “TEAE: GGT increased, maximal CTCAE grade G1” value [1] was 3 (25.0%) n (%). The “TEAE: GGT increased, maximal CTCAE grade G2” value [1] was 1 (8.3%) n (%), the “TEAE: GGT increased, maximal CTCAE grade G3” value [1] was 0 n (%) and the “TEAE: GGT increased, maximal CTCAE grade G4” value [1] was 0 n (%). The “TEAE: GGT increased, maximal CTCAE grade G5” value [1] was 0 n (%), the “TEAE: Hypoalbuminemia” value [1] was 3 (25.0%) n (%) and the “TEAE: LDH increased” value [1] was 2 (16.7%) n (%). For the same compound, the “TEAE: LDH increased, any grade (Table S3)” value [1] was 2 (16.7%) n (%), the “TEAE: LDH increased, maximal CTCAE grade G1” value [1] was 2 (16.7%) n (%) and the “TEAE: LDH increased, maximal CTCAE grade G2” value [1] was 0 n (%). The “TEAE: LDH increased, maximal CTCAE grade G3” value [1] was 0 n (%), the “TEAE: LDH increased, maximal CTCAE grade G4” value [1] was 0 n (%) and the “TEAE: LDH increased, maximal CTCAE grade G5” value [1] was 0 n (%). For the same compound, the “TEAE: Lymphocyte count decreased” value [1] was 4 (33.3%) n (%), the “TEAE: Platelet count decreased” value [1] was 1 (8.3%) n (%) and the “TEAE: Proteinuria” value [1] was 2 (16.7%) n (%). The “TEAE: Sinus tachycardia” value [1] was 1 (8.3%) n (%) and the “TEAE: Urine protein present” value [1] was 1 (8.3%) n (%).
